Test results from patent publication US20210268030A1, “FIBROADIPOGENIC PROGENITOR-DERIVED EXOSOMES FOR REGENERATION OF DYSTROPHIC MUSCLES” (EXOFIX S.R.L., priority 2018, published 2021).

Experiments:
CD63 = experiment: In situ immunofluorescence for CD63 on muscle sections; assay type: in vivo, mdx mice
Description: (§1) Animals were used at the specified age and treated for the indicated periods with daily intra peritoneal injections of Trichostatin A, TSA (0.6 mg/kg/day; #T8552, Sigma), dissolved in phospate-saline solution or in phospate-saline alone as vehicle control (CTR). Muscle injury was performed by intramuscular injection in Tibliais Anterior (TA) of Cardiotoxin—CTX− (10 μM, 10 mg/mL) (#L8102, Lotaxan Valence, France, http://www.latoxan.com), 3 days before mice sacrifice.
For immunofluorescence analysis, cryo-sections and cells were fixed in 4% PFA for 10 min and permeabilized with 100% cold acetone (#32201, Sigma) for 6 min at −20° C. or 100% cold Methanol (#32213, Sigma) for 6 min at −20° or with 0.25% Triton for 15 min at RT. Muscle sections were blocked for 1 h with a solution containing 4% BSA (#A7030, Sigma) in PBS. […] Sections were incubated with DAPI in PBS for 5 minutes for nuclear staining, washed in PBS, and mounted with glycerol 3:1 in PBS. […]

Notch3 = Notch3 transcripts in MuSCs isolated from treated mdx mice; assay type: in vivo; conditions: MuSCs isolated from mdx mice treated with TSA
Description: as §1
(§2) For RNA-sequencing sample preparation, MuSCs and FAPs were freshly isolated by FACS from 6 C57BI6 mdx male mice 8-weeks old treated or not with TSA for 15 days. RNA was collected using Trizol) reagent (#T9424, Sigma). About 100 ng/μL of total RNA was sent in duplicate to IGA (Istituto di Genomica Applicata, Udine) for RNA sequencing using Illumina TruSeq Stranded Total RNA kit Ribo-Zero GOLD on Illumina Hiseq2500 platform.
(§3) To investigate this hypothesis, we evaluated the effect of FAP-derived exosomes from HDACi-treated or control-treated mdx mice on MuSCs within single fibres isolated from WT mice. Freshly isolated single muscle fibres from tibialis anterior, extensor digitorum longus, gastrocnemius and soleus of C57BL6J mice were incubated with FAP-derived exosomes or whole conditioned media, and their effect on MuSCs was evaluated by monitoring the expression of Pax7, MyoD and DNA synthesis (EdU incorporation). […]

Notch1 = Notch1 transcripts in MuSCs isolated from treated mdx mice; assay type: in vivo; conditions: MuSCs isolated from mdx mice treated with TSA
Description: as §1, §2, §3

mdx mice = conditions: young vs old mdx mice; Mozzetta et al. 2013, Saccone et al. 2014; cited from earlier work

SMILES: CC(/C=C/C(=O)NO)=C\[C@@H](C)C(=O)c1ccc(N(C)C)cc1 [TSA, Trichostatin A]
- CD63 signal in the interstitium of muscles (CD63; 1 year-old mdx mice): could not increase
- CD63-positive interstitial signal (CD63; mdx young mice (1.5-month), compared to young mdx CTR): significant increase
- Notch3 transcripts (Notch3): reduced
- Notch1 transcripts (Notch1): reduced
- regeneration (mdx mice): promotes regeneration in young, but not old
